According to PubChem BioAssay (NCI):
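All cell lines were grown in 96-well plates and treated with compound for 48 hours. The concentration for 50% growth inhibition is given as GI50. TGI: total growth inhibition.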

Experiments:
Test in all cases: inhibition of tumour cell growth, NCI panel, 48 h
786-0 renal = system: 786-0 renal
A498 renal = system: A498 renal
A549 NSCLC = system: A549 NSCLC
ACHN renal = system: ACHN renal
BT-549 breast = system: BT-549 breast
CAKI-1 renal = system: CAKI-1 renal
CCRF-CEM leukemia = system: CCRF-CEM leukemia
COLO 205 colon = system: COLO 205 colon
DU-145 prostate = system: DU-145 prostate
EKVX NSCLC = system: EKVX NSCLC
HCC-2998 colon = system: HCC-2998 colon
HCT-116 colon = system: HCT-116 colon
HCT-15 colon = system: HCT-15 colon
HL-60(TB) leukemia = system: HL-60(TB) leukemia
HOP-62 NSCLC = system: HOP-62 NSCLC
HOP-92 NSCLC = system: HOP-92 NSCLC
HS 578T breast = system: HS 578T breast
HT29 colon = system: HT29 colon
IGROV1 ovarian = system: IGROV1 ovarian
K-562 leukemia = system: K-562 leukemia
KM12 colon = system: KM12 colon
LOX IMVI melanoma = system: LOX IMVI melanoma
M14 melanoma = system: M14 melanoma
MALME-3M melanoma = system: MALME-3M melanoma
MCF7 breast = system: MCF7 breast
MDA-MB-231 breast = system: MDA-MB-231 breast
MDA-MB-435 = system: MDA-MB-435
MOLT-4 leukemia = system: MOLT-4 leukemia
NCI-H226 lung = system: NCI-H226 lung
NCI-H23 lung = system: NCI-H23 lung
NCI-H460 lung = system: NCI-H460 lung
NCI-H522 lung = system: NCI-H522 lung
NCI/ADR-RES ovarian = system: NCI/ADR-RES ovarian
OVCAR-3 ovarian = system: OVCAR-3 ovarian
OVCAR-4 ovarian = system: OVCAR-4 ovarian
OVCAR-5 ovarian = system: OVCAR-5 ovarian
OVCAR-8 ovarian = system: OVCAR-8 ovarian
PC-3 prostate = system: PC-3 prostate
RPMI-8226 leukemia = system: RPMI-8226 leukemia
RXF 393 renal = system: RXF 393 renal
SF-268 CNS = system: SF-268 CNS
SF-295 CNS = system: SF-295 CNS
SF-539 CNS = system: SF-539 CNS
SK-MEL-2 melanoma = system: SK-MEL-2 melanoma
SK-MEL-28 melanoma = system: SK-MEL-28 melanoma
SK-MEL-5 melanoma = system: SK-MEL-5 melanoma
SK-OV-3 ovarian = system: SK-OV-3 ovarian
SN12C renal = system: SN12C renal
SNB-19 CNS = system: SNB-19 CNS
SNB-75 CNS = system: SNB-75 CNS
SR leukemia = system: SR leukemia
SW-620 colon = system: SW-620 colon
T-47D breast = system: T-47D breast
TK-10 renal = system: TK-10 renal
U251 CNS = system: U251 CNS
UACC-257 melanoma = system: UACC-257 melanoma
UACC-62 melanoma = system: UACC-62 melanoma
UO-31 renal = system: UO-31 renal

Cc1cc(NCCN(C(C)C)C(C)C)nc(/N=C(\N)Nc2ccc(Cl)c(C(F)(F)F)c2)n1
GI50 (786-0 renal): 736 nM | TGI (786-0 renal): 2060 nM | GI50 (A498 renal): 139 nM | TGI (A498 renal): 1420 nM | GI50 (A549 NSCLC): 356 nM | TGI (A549 NSCLC): 1110 nM | GI50 (ACHN renal): 381 nM | TGI (ACHN renal): 1060 nM | GI50 (BT-549 breast): 1640 nM | TGI (BT-549 breast): 3590 nM | GI50 (CAKI-1 renal): 427 nM | TGI (CAKI-1 renal): 1020 nM | GI50 (CCRF-CEM leukemia): 335 nM | TGI (CCRF-CEM leukemia): 1470 nM | GI50 (COLO 205 colon): 164 nM | TGI (COLO 205 colon): 305 nM | GI50 (DU-145 prostate): 1470 nM | TGI (DU-145 prostate): 3040 nM | GI50 (EKVX NSCLC): 1480 nM | TGI (EKVX NSCLC): 3750 nM | GI50 (HCC-2998 colon): 214 nM | TGI (HCC-2998 colon): 469 nM | GI50 (HCT-116 colon): 275 nM | TGI (HCT-116 colon): 2380 nM | GI50 (HCT-15 colon): 276 nM | TGI (HCT-15 colon): 913 nM | GI50 (HL-60(TB) leukemia): 380 nM | TGI (HL-60(TB) leukemia): 952 nM | GI50 (HOP-62 NSCLC): 748 nM | TGI (HOP-62 NSCLC): 2000 nM | GI50 (HOP-92 NSCLC): 163 nM | TGI (HOP-92 NSCLC): 1010 nM | GI50 (HS 578T breast): 473 nM | TGI (HS 578T breast): 1690 nM | GI50 (HT29 colon): 267 nM | TGI (HT29 colon): 919 nM | GI50 (IGROV1 ovarian): 819 nM | TGI (IGROV1 ovarian): 2750 nM | GI50 (K-562 leukemia): 191 nM | TGI (K-562 leukemia): 411 nM | GI50 (KM12 colon): 674 nM | TGI (KM12 colon): 1790 nM | GI50 (LOX IMVI melanoma): 193 nM | TGI (LOX IMVI melanoma): 365 nM | GI50 (M14 melanoma): 181 nM | TGI (M14 melanoma): 323 nM | GI50 (MALME-3M melanoma): 183 nM | TGI (MALME-3M melanoma): 403 nM | GI50 (MCF7 breast): 269 nM | TGI (MCF7 breast): 851 nM | GI50 (MDA-MB-231 breast): 292 nM | TGI (MDA-MB-231 breast): 1040 nM | GI50 (MDA-MB-435): 196 nM | TGI (MDA-MB-435): 389 nM | GI50 (MOLT-4 leukemia): 383 nM | TGI (MOLT-4 leukemia): 1470 nM | GI50 (NCI-H226 lung): 1960 nM | TGI (NCI-H226 lung): 4150 nM | GI50 (NCI-H23 lung): 1490 nM | TGI (NCI-H23 lung): 3080 nM | GI50 (NCI-H460 lung): 463 nM | TGI (NCI-H460 lung): 1620 nM | GI50 (NCI-H522 lung): 206 nM | TGI (NCI-H522 lung): 470 nM | GI50 (NCI/ADR-RES ovarian): 1670 nM | TGI (NCI/ADR-RES ovarian): 3450 nM | GI50 (OVCAR-3 ovarian): 1320 nM | TGI (OVCAR-3 ovarian): 2770 nM | GI50 (OVCAR-4 ovarian): 697 nM | TGI (OVCAR-4 ovarian): 1970 nM | GI50 (OVCAR-5 ovarian): 2360 nM | TGI (OVCAR-5 ovarian): 5240 nM | GI50 (OVCAR-8 ovarian): 275 nM | TGI (OVCAR-8 ovarian): 812 nM | GI50 (PC-3 prostate): 596 nM | TGI (PC-3 prostate): 2450 nM | GI50 (RPMI-8226 leukemia): 220 nM | TGI (RPMI-8226 leukemia): 662 nM | GI50 (RXF 393 renal): 249 nM | TGI (RXF 393 renal): 750 nM | GI50 (SF-268 CNS): 670 nM | TGI (SF-268 CNS): 1760 nM | GI50 (SF-295 CNS): 752 nM | TGI (SF-295 CNS): 2140 nM | GI50 (SF-539 CNS): 179 nM | TGI (SF-539 CNS): 329 nM | GI50 (SK-MEL-2 melanoma): 208 nM | TGI (SK-MEL-2 melanoma): 388 nM | GI50 (SK-MEL-28 melanoma): 176 nM | TGI (SK-MEL-28 melanoma): 320 nM | GI50 (SK-MEL-5 melanoma): 195 nM | TGI (SK-MEL-5 melanoma): 492 nM | GI50 (SK-OV-3 ovarian): 1260 nM | TGI (SK-OV-3 ovarian): 2550 nM | GI50 (SN12C renal): 1340 nM | TGI (SN12C renal): 2870 nM | GI50 (SNB-19 CNS): 1480 nM | TGI (SNB-19 CNS): 2830 nM | GI50 (SNB-75 CNS): 449 nM | TGI (SNB-75 CNS): 1030 nM | GI50 (SR leukemia): 155 nM | TGI (SR leukemia): 425 nM | GI50 (SW-620 colon): 532 nM | TGI (SW-620 colon): 1620 nM | GI50 (T-47D breast): 183 nM | TGI (T-47D breast): 361 nM | GI50 (TK-10 renal): 297 nM | TGI (TK-10 renal): 1040 nM | GI50 (U251 CNS): 194 nM | TGI (U251 CNS): 400 nM | GI50 (UACC-257 melanoma): 187 nM | TGI (UACC-257 melanoma): 337 nM | GI50 (UACC-62 melanoma): 198 nM | TGI (UACC-62 melanoma): 417 nM | GI50 (UO-31 renal): 201 nM | TGI (UO-31 renal): 604 nM
